Laboratory results reported in patent publication US20250302912A1, “COMPOSITION INCLUDING PEPTIDE COMPOUND AND SURFACTANT” (CHUGAI SEIYAKU KABUSHIKI KAISHA, priority 2021, published 2025).
In brackets after ≈: the same amount, converted by molar mass. Bridge positions count the residues as written; N and C are the ends. Square brackets hold non-standard residues; d marks the D form. Peptide text beside a SMILES is read from it. * marks the point of attachment. Ala(4-thiazolyl) = N[C@@H](Cc1cscn1)C(=O)O; NMeNle(6-CHF2) = CN[C@@H](CCCCC(F)F)C(=O)O; Phe(3-Cl) = N[C@@H](Cc1cccc(Cl)c1)C(=O)O; NMehPhe = CN[C@@H](CCc1ccccc1)C(=O)O; NMeF = CN[C@@H](Cc1ccccc1)C(=O)O; NMeD = CN[C@@H](CC(=O)O)C(=O)O; NMeS = CN[C@@H](CO)C(=O)O; Pip = O=C(O)[C@@H]1CCCCN1; Nle = CCCC[C@H](N)C(=O)O; Pyrrolidide = C1CCN(*)C1; dNMeA = CN[C@H](C)C(=O)O; Propyl = CCC*

Key:
[1] = Evaluation of Caco-2 membrane permeability; conditions: human, Caco-2, pH 6.5, Permeability coefficient (Caco-2 Papp), FaSSIF/HBSS buffer pH 6.5 apical
Protocol: Caco-2 cells were cultured on 96-well Transwell for 3 weeks. […] Each well was shaken at 5% CO2, 37° C., 80 rpm, and at 180 minutes after the start, a sample on the Basal side was taken and the permeation amount of the compound was measured by liquid chromatography-mass spectrometry (LC/MS/MS). From the permeation amount, the permeability coefficient (Caco-2 Papp (cm/sec)) was calculated.
As comparative examples, the permeation amount was measured by the same procedure as described above except that a FaSSIF/HBSS buffer (pH 6.5) without 5 mM lauroyl-L-carnitine was used. […] From the measured permeation amount, the permeability coefficient was calculated.

[2] = Evaluation of solubility in 50 mM phosphate buffer (PPB, pH 6.5); format: physicochemical; conditions: 50 mM phosphate buffer pH 6.5, 37° C., 1 atm, 22 to 24 hours
Protocol: To an excess amount of lyophilized powder of the compound, 50 mM phosphate buffer (PPB: Phosphate buffer, pH 6.5) is added, and after shaking (37° C., 1 atm, 1800 rpm, for 22 to 24 hours), the mixture is filtered with a filter, and the compound concentration of the filtrate is measured by LC/MS/MS. Solubility (μg/mL) is calculated from the measured compound concentration.
Solubility (g/mL) was calculated from the measured compound concentration.

claudin protein = conditions: Drug Metab. Pharmacokinet., 26 (2): 162170 (2011); cited from earlier work
[3] = Without 5 mM lauroyl-L-carnitine

SMILES | Papp A→B at 180 min [1, 3] | Papp A→B at 180 min ([1]; With 5 mM lauroyl-L-carnitine) | solubility [2] | Effect on expression of claudin protein / tight junction (claudin protein)
CC[C@H](C)[C@@H]1NC(=O)[C@H](CC(C)C)N(C)C(=O)CC(C(=O)N2CCOCC2)N(C)C(=O)[C@H](C2CCCC2)N(C)C(=O)C2(CCCC2)NC(=O)[C@@H]2CCCN2C(=O)[C@H](CCc2ccc(C(F)(F)F)c(Cl)c2)NC(=O)CN(C)C(=O)[C@H](C2CCCC2)N(C)C(=O)[C@@H]2CCN2C(=O)[C@H](C)NC1=O (single isomer, unassigned) [Compound 10] | < 0.00976 ×10⁻⁶ cm/s | – | – | –
CC[C@H](C)[C@@H]1NC(=O)C(CC(C)C)N(C)C(=O)CC(C(=O)N(C)C)N(C)C(=O)[C@H](C2CCCC2)N(C)C(=O)C(C)NC(=O)C(C)N(C)C(=O)[C@H](CCc2ccc(C(F)(F)F)c(Cl)c2)NC(=O)CN(C)C(=O)[C@H](CC2CCCCC2)N(C)C(=O)[C@@H]2CCN2C(=O)[C@H](C)N(C)C1=O (single isomer, unassigned) [Compound 9] | 0.00949 ×10⁻⁶ cm/s | 0.0214 ×10⁻⁶ cm/s | – | –
CCCC[C@@H]1NC(=O)[C@@H]2CCCN2C(=O)[C@H](CCCC)NC(=O)[C@@H](C)N(C)C(=O)C[C@@H](C(=O)N2CCCC2)N(C)C(=O)[C@@H]2CCCN2C(=O)[C@H]([C@@H](C)CC)NC(=O)[C@@H]2CCCCN2C(=O)[C@H](Cc2cccc(Cl)c2)NC(=O)[C@H](COCCC)N(C)C(=O)[C@H](Cc2ccccc2)N(C)C1=O [Compound 5] ([dNMeA][Nle]P[Nle][NMeF][NMeS](Propyl)[Phe(3-Cl)][Pip]IP[NMeD]-Pyrrolidide; lactam N-11) | 0.00372 ×10⁻⁶ cm/s | 0.0264 ×10⁻⁶ cm/s | < 1.09 µg/mL | –
CC[C@H](C)[C@@H]1NC(=O)[C@H](Cc2ccccc2)N(C)C(=O)[C@H](Cc2cscn2)NC(=O)[C@@H](C)N(C)C(=O)C[C@@H](C(=O)N2CCCC2)NC(=O)[C@@H]2CCCN2C(=O)[C@H](CCCCC(F)F)N(C)C(=O)CNC(=O)[C@H](Cc2ccccc2)N(C)C(=O)[C@@H]2CCCN2C(=O)[C@H](CCc2ccccc2)N(C)C1=O [Compound 4] ([dNMeA][Ala(4-thiazolyl)][NMeF]I[NMehPhe]P[NMeF]G[NMeNle(6-CHF2)]PD-Pyrrolidide; lactam N-11) | < 0.0107 ×10⁻⁶ cm/s | 0.012 ×10⁻⁶ cm/s | 103 µg/mL (≈ 71.2 µM) | –
CCCCCCCCCCCC(=O)O[C@H](CC(=O)[O-])C[N+](C)(C)C [lauroyl-L-carnitine] | – | – | – | suppresses the expression of claudin protein and thus expands the tight junction
CC[C@H](C)[C@@H]1NC(=O)[C@H](Cc2ccccc2)N(C)C(=O)CN(C)C(=O)C[C@@H](C(=O)N2CCCCC2)NC(=O)[C@H](CC(C)C)N(C)C(=O)[C@H](COC(C)(C)C)NC(=O)[C@H](CC(C)C)N(C)C(=O)[C@H](CCc2ccccc2)N(C)C(=O)CN(C)C(=O)[C@H]([C@@H](C)O)NC(=O)[C@H](CC(C)C)N(C)C1=O (stereo in doubt) [Compound 7] | < 0.0944 ×10⁻⁶ cm/s | 0.526 ×10⁻⁶ cm/s | – | –
CC[C@H](C)[C@@H]1NC(=O)[C@H](CC(C)C)N(C)C(=O)CC(C(=O)N2CCCCC2)N(C)C(=O)[C@H](C2CCCC2)N(C)C(=O)C2(CCCC2)NC(=O)[C@@H]2CCCN2C(=O)[C@H](CCc2ccc(C(F)(F)F)c(Cl)c2)NC(=O)CN(C)C(=O)[C@H](CC2CCCCC2)N(C)C(=O)[C@@H]2CCN2C(=O)[C@H](C)N(C)C1=O (single isomer, unassigned) [Compound 8] | 0.042 ×10⁻⁶ cm/s | 0.154 ×10⁻⁶ cm/s | – | –
CC[C@H](C)[C@@H]1NC(=O)[C@H](CC(C)C)N(C)C(=O)CC(C(=O)N2CCOCC2)N(C)C(=O)[C@H](C2CCCC2)N(C)C(=O)C2(CCCC2)NC(=O)[C@@H]2CCCN2C(=O)[C@H](CCc2ccc(C(F)(F)F)c(Cl)c2)NC(=O)CN(C)C(=O)[C@H](CC2CCCCC2)N(C)C(=O)[C@@H]2CCN2C(=O)[C@H](C)N(C)C1=O (single isomer, unassigned) [Compound 2] | 0.0491 ×10⁻⁶ cm/s | 0.265 ×10⁻⁶ cm/s | – | –
